Measured values: patent publication US8512757B2, “Micelles for drug delivery” (Agency for Science, Techology and Research, priority 2006, dated 2013)

Experiments:
4T1 cells = test: Cellular distribution and uptake of DOX by confocal microscopy; assay type: cell-based, mouse; details: DOX 10 mg/L, 4 hours
Experimental: Free DOX (10 mg/L) and DOX-loaded micelles (DOX content: 10 mg/L) in RPMI 1640 medium (without folate) were incubated with 4T1 cells for 4 hours before examination. The cells on the cover glass were thoroughly washed three times with PBS and visualized by CLSM (Olympus FV300, Japan). DOX was excited at 532 nm with emission at 595 nm. The laser power was 10%. All the observations were conducted using the same resolution.

[1] = test system: 4T1 mouse breast cancer cells; test: Cytotoxicity test (MTT); assay type: cell-based; details: 4T1 cells, 48 hours, 37° C.
Experimental: 4T1 mouse breast cancer cells were cultured in RPMI 1640 (without folate) supplemented with 10% FBS, 5% penicillin, 2 mM L-glutamine (Sigma), and incubated at 37° C., 5% CO2. The cells were seeded onto 96-well plates at 10,000 cells per well, and incubated for one day. […] The media in the wells were replaced with 100 μL of the pre-prepared samples. The plates were then returned to the incubator and maintained in 5% CO2, at 37° C. for 48 hours. Fresh growth media and 10 μL aliquots of MTT solution were used to replace the mixture in each well after 48 hours. The plates were then returned to the incubator and maintained in 5% CO2, at 37° C., for a further 3 hours. The growth medium and excess MTT in each well were then removed. DMSO (150 μL) was then added to each well to dissolve the internalised purple formazan crystals. An aliquot of 100 μL was taken from each well and transferred to a fresh 96-well plate. Each sample was tested in eight replicates per plate. Three plates were used, making a total of 24 replicates per sample. The plates were then assayed at 550 nm and 690 nm. The absorbance readings of the formazan crystals were taken to be that at 550 nm subtracted by that at 690 nm. The results were expressed as a percentage of the absorbance of the blank control.

[2] = Biodistribution in mice bearing subcutaneous 4T1 breast tumours; assay type: in vivo; details: 5 mg/kg DOX
Experimental: Female balb/c (body weight: 19-21 g) were subcutaneously implanted with 4T1 cells (10^7 cells per animal). Tumours were allowed to grow for 2 weeks. Free DOX and DOX-loaded micelles were administrated to the animals by tail vein injection at an equivalent DOX dose of 5 mg/kg. At 10 minutes, 30, minutes, 2 hours and 4 hours, blood samples were taken, and the animals were sacrificed. The liver, lung, heart, spleen, kidney and tumour were removed, and kept at −80° C. for future analysis. The organs were weighted and homogenized. DOX distributed in different organs was extracted using chloroform and isopropanol, and analyzed as described by H. S. Yoo, T. G. Park, J. Control. Rel. 2004, 100, 247. Homogenized tissue was added into an acidic hydrolysis buffer containing 2.0 M HCl solution at 80° C. for 10 minutes. The supernatant was collected, and 0.9 mL of the mixture of chloroform and isopropanol (3:1 in volume) was then added. After vortex-mixing, the organic layer was collected by centrifugation at 16,000 rpm for 15 minutes at room temperature. The solution was dried, and re-dissolved in a mobile phase and analyzed by high performance liquid chromatography (HPLC). The recovery rate was 70%, and corrected by an internal standard. The HPLC system consisted of a Waters 2690 separation module and Waters 2475 multi λ fluorescence detector. […] The DOX peak was detected at an excitation wavelength of 480 nm and an emission wavelength of 580 nm.

[3] = tail vein injection, 4T1 tumour

t1/2 in the blood ([2]; tail vein injection): about 30 minutes
maximum DOX level in tumour tissue [2, 3]: 2.9 µg/g
time at which maximum DOX level in tumour was reached [2, 3]: 30 min
DOX level in tumour tissue at 240 minutes ([2]; tail vein injection, 240 minutes): 1.0 µg/g
SMILES: COc1cccc2c1C(=O)c1c(O)c3c(c(O)c1C2=O)C[C@@](O)(C(=O)CO)C[C@@H]3O[C@H]1C[C@H](N)[C@H](O)[C@H](C)O1.Cl [free DOX, Doxorubicin hydrochloride]
cellular distribution of DOX (4T1 cells): only accumulated in the nucleus
IC50 value of DOX [1]: 3.0 µg/mL
organ distribution of DOX ([2]; spleen, kidney, heart, liver and lung): accumulating uniformly in the heart, lung and liver
